Assay results from patent US20110251126A1, “INTESTINAL TREATMENT” (priority 2008, published 2011).
Ends that are not written are not given here.

Tests used:
small intestinal crypts = experiment: Surviving small intestinal crypts after 13Gy total body X-irradiation; assay type: in vivo, mice; details: analyzed four days following irradiation
Procedure: Twenty four 8-10 week old C57/B6 male mice randomized into three groups of each eight animals. Animals received PP[2-36] (0.1 mg/kg) s.c. twice daily for three days either prior or post radiation. Controls received vehicle both prior and post radiation.
Group 1 (pretreatment): PP[2-36] (0.1 mg/kg) twice daily on day −3, −2, −1; radiation on day 0; vehicle on day 0, +1, +2, +3. Group 2 (post treatment): Vehicle twice daily on day −3, −2, −1; radiation on day 0; PP[2-36] (0.1 mg/kg twice daily on day 0, +1, +2, +3. Group 3 (control): Vehicle twice daily on day −3, −2, −1; radiation on day 0; vehicle twice daily on day 0, +1, +2, +3. All animals were irradiated (day 0) to a single dose of 13Gy total body X-irradiation. Irradiation was performed using a Pantak HF320 X-ray set (Agfa NDT Ltd, Reading, UK). The machine was operated at 300 kV, 10 mA. The X-ray tube was fitted with additional filtration to give a radiation quality of 2.3 mm Cu half-value layer (HVL). Mice were restrained in a jig, positioned at a distance of 700 mm from the focus of the X-ray tube. Irradiation was delivered at a dose rate of 75.5 cGy/min. […] For each animal ten intestinal circumferences were analyzed—a circumference is equivalent to a given length of intestine and therefore a convenient baseline unit of length. The number of surviving crypts per circumference was scored and the average per group determined. […]

[1] = test system: small intestinal crypt cells; experiment: Intestinal crypt cell proliferation (BrdU incorporation, cell positional scoring); assay type: in vivo, mice; details: 12 hours after dose
Procedure: 3 Groups of 8 male 8-10 weeks old C57/B6 mice were treated with group 1: Vehicle, group 2:PP(2-36) 0,1 mg/kg single injection s.c., group 3: PP(2-36) 1,0 mg/kg single injection s.c. Animals were euthanized 12 hours following the single injection of either dose. Vehicle was used as control. Prior to euthanasia all animals were given BrdU (Bromodeoxyuridine) i.p.—a marker for cell proliferation. The small intestine and colon were then removed and fixed in Carnoy's solution. From the Carnoy's fixed small intestinal material, paraffin blocks were generated and sectioned. Slides were immunolabelled to reveal the BrdU incorporation and analyzed on a cell positional basis (i.e. location of the individual cell in the hierarchy of cells in the crypt) to identify any induced proliferative changes (BrdU incorporation and mitotic counts). Fifty half crypts per mouse were scored on a cell positional basis, generating 400 frequency scores per group of 8 animals from which the means were generated and effects analyzed.

hPP2-36 (PLEPVYPGDNATPEQMAQYAADLRRYINMLTRPRY-NH2; listed as Homo sapiens) [PP[2-36]]
increase in number of surviving crypts compared to vehicle control (small intestinal crypts; post treatment 0.1 mg/kg s.c. twice daily for four days post irradiation, non-significant p>0.05): 47% | increase in number of surviving intestine crypts compared to vehicle control (small intestinal crypts; pretreatment 0.1 mg/kg s.c. twice daily for three days prior irradiation, p<0.05): two | level of proliferation in the small intestinal crypts ([1]; 0,1 mg/kg single injection s.c.): increased proliferation at cell positions 6-13 | level of proliferation in the small intestinal crypts ([1]; 1 mg/kg single injection s.c.): stimulation was evident throughout the proliferative zone
